Assays:
[1] = system: HA accumulation in the pancreatic islets; assay: Immuno-staining for HA in pancreatic islets after 4-MU treatment; type: in vivo, mouse; details: DORmO mice, 8 week start treatment group, versus DORmO mice on control chow
From the text: HA accumulation in the pancreatic islets was investigated through immuno-staining after 4-MU treatment in a few mice of the 8 week start treatment group. […] The pictures in the upper row show representative images of a HA staining in pancreatic islets in control animals treated with normal chow, left column, or treated with 4-MU, right column.

[2] = cited from earlier work
[3] = system: CD4+ CD25+ cells; assay: CD25+ of CD4+ T-cells in spleen and lymph nodes of EAE mice; type: in vivo, mouse; details: EAE subjects, 4-MU started before immunization (pretreatment protocol)
[4] = system: MOG35-55 peptide-induced EAE in C57B1/6 mice; assay: MOG35-55 peptide-induced EAE mouse model of MS, EAE incidence and score; type: in vivo; details: for incidence of EAE: control 9/10
From the text: FIGS. 12A, 12B, and 12C graphically illustrate the mean EAE score as a function of days post induction in subjects treated with 4-MU according to a pretreatment, treatment, or intervention protocol, respectively.
For FIGS. 12A, 12B, and 12C, *P<0.05, ** P<0.01, ***P<0.001, Mann-Whitney.

[5] = system: insulin in pancreatic islets; assay: Immuno-staining for insulin in pancreatic islets after 4-MU treatment; type: in vivo, mouse; details: DORmO mice treated with 4-MU, 8 week start treatment group
From the text: The animals stained for HA were also stained for insulin. […] The pictures in the upper row show representative images of insulin staining in pancreatic islets in control animals treated with normal chow, (left column) or treated with 4-MU (right column).

[6] = system: FoxP3+ T-cells; assay: FoxP3+ T-cell numbers in lymphatic tissue after 4-MU treatment; type: in vivo, mouse
[7] = system: cells infiltrating into the spinal cord; assay: Immunologic profile of cells infiltrating the spinal cord at peak of EAE; type: in vivo, mouse; details: for CD4+ T-cell infiltration into the spinal cord: EAE day 22 after immunization
Description: The effect of 4-MU treatment on EAE pathogenesis was analyzed by evaluating the immunologic profile of cells infiltrating into the spinal cord at the peak of disease (day 22 after immunization).
Further, considering the differential pathologic roles that Th1 and Th17 cells have in EAE (Axtell, R. C., et al., Clin. Rev. Allergy Immunol. 44, 114-120 (2013); Lowther, D. E., et al., Acta Neuropathol. 126, 501-515 (2013)), this change in the local Th cell profile can contribute to the prevention of the autoimmune attack on myelin.

[8] = system: DORmO mice; assay: Blood glucose in DORmO double transgenic mouse model of autoimmune diabetes, 4-MU in chow; type: in vivo
From the text: To determine that HA accumulates in the pancreatic islets and creates a permissive environment for autoimmune attacks during autoimmune diabetes disease progression, the DORmO double transgenic mouse model of autoimmune diabetes was used. DORmO mice predictably develop autoimmune diabetes because they are bred to have both a target antigen on their insulin producing beta-cells as well as an immune system that specifically recognizes that antigen. DORmO mice are the result of a cross between RIPmOVA mice (a strain that carries a gene specific for hen egg ovalbumin (OVA) that is only expressed on beta-cells, emulating the auto-antigen) and DO11.10 mice (a strain that carries a T-cell receptor transgene specific for OVA, emulating auto-reactive CD4+ T cells). […] A group of control mice was treated with 4-MU as well in order to see if 4-MU alters the blood glucose levels of those mice. […] The DORmO mice on control chow had to be sacrificed after getting diabetic according to the animal protocol. Another treatment group was established where the 4-MU treatment started at 12 weeks of age when the DORmO mice were already diabetic. […] The animals stained for HA were also stained for insulin. […] The pictures in the upper row show representative images of insulin staining in pancreatic islets in control animals treated with normal chow, (left column) or treated with 4-MU (right column).

[9] = EAE mice after 4-MU treatment, FIG. 13B
[10] = EAE mice, 4-MU treatment, FIG. 13A

total lymphocyte counts in lymphatic organs (generalized immunosuppression) ([7]; EAE mice on 4-MU): unchanged
SMILES: Cc1cc(=O)oc2cc(O)ccc12 [4-MU, 4-methylumbelliferone]
HA accumulation in pancreatic islets (immuno-staining) [1]: significant decrease
toxicity ([2]; general statement): no known toxicity
safety profile in clinical use ([2]; human use in Europe and Asia (biliary spasm, gallstones)): excellent safety profile
number of CD4+ CD25+ cells in the spleen and lymph nodes [3]: increased number
EAE disease severity (mean EAE score) ([4]; intervention protocol, 4-MU after the onset of neurological symptoms): significantly ameliorated disease as early as 3 days after start of treatment
incidence of EAE ([4]; pretreatment protocol, 4-MU 5% w/w in chow from 4 days before immunization): 1/7
incidence of EAE ([4]; treatment protocol, 4-MU 5% w/w in chow after immunization boost on day 2, before symptoms): 2/10
insulin in the islets (immuno-staining) [5]: still had a significant amount of insulin in the islets
FoxP3+ T-cells in spleen, MLN, ILN and PLN ([6]; D0.11 mice following OVA immunization, FIG. 13D): increase in FoxP3+ T-cells
general immunosuppression ([6]; D0.11 mice on 4-MU, data not shown): did not induce a general immunosuppression
numbers of FoxP3+ T-cells in lymphatic tissue ([6]; healthy mice, data not shown): significantly increased
CD4+ T-cell infiltration into the spinal cord ([7]; intervention treatment): moderately reduced
CD4+ T-cell infiltration into the spinal cord ([7]; pretreatment and early treatment with 4-MU): substantially reduced
IFN-γ producing Th1 populations among CD4+ T-cells in the CNS [7, 9]: mainly reduced
IL-17 producing Th17 population among CD4+ T-cells in the CNS [7, 9]: less affected
infiltration of CD8+ and CD4+ lymphocytes and macrophages [7, 10]: reduced infiltration
total numbers of cell infiltrates in spinal cord [7, 10]: lower total numbers of cell infiltrates
normo-glycemia ([8]; DORmO mice, 4-MU added to chow): restored normo-glycemia
blood glucose level / development of diabetes ([8]; DORmO mice, 4-MU in chow starting at 5 weeks of age): not to become diabetic
blood glucose level ([8]; DORmO mice, 4-MU treatment starting at 8 weeks of age, at 23 weeks of age): normal blood glucose level
blood glucose levels ([8]; already diabetic DORmO mice, 4-MU starting at 12 weeks of age, after 1 week of treatment): decrease of the blood glucose levels
